Consider 32 molecules from US20110081315A1, “NOVEL MACROCYCLIC INHIBITORS OF HEPATITIS C VIRUS REPLICATION” (INTERMUNE, INC., priority 2009, published 2011).

Assay [1] concerns the target NS3/NS4 complexes (Hepatitis C virus genotype 1a, UniProt P27958). As to the kind of experiment: NS3/NS4 inhibition assay (IC50). Format: biochemical. Particulars: NS3/NS4 activity; 23° C., 25 μM NS4A peptide. The method in brief: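 Read-outs are IC50 for inhibition of the NS3/NS4 complex and EC50 in an HCV replicon system. Biochemical runs use 23° C. and a 50 mM Tris-HCl (pH 7.5) buffer with 15% glycerol, 10 mM DTT, 0.6 mM LDAO and 25 μM NS4A peptide.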

The test system of assay [2] is hepatitis C replicon. The assay is described as follows: hepatitis C replicon EC50 assay. Particulars: Hepatitis C virus. The class given is cell-based. The method in brief: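 NS3/NS4 protease complexes were formed and compound inhibitory concentrations (IC50) measured at ambient temperature (23° C.) in 50 mM Tris-HCl, pH 7.5, with 15% glycerol, 0.6 mM LDAO, 25 μM NS4A peptide and 10 mM DTT. Replicon EC50 values come from a standard HCV replicon cell assay.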
(In antiviral work, replicon cells carry a viral genome segment that copies itself.)

Setting [3] is: hepatitis C replicon, read-out: EC50.

The term pIC50 denotes −log10 of the IC50, conventionally taken in molar units. One may read the pEC50 as the negative decadic logarithm of the EC50, by convention in mol/L.

SMILES strings stand for the structures. pEC50, pIC50: −log10 of the molar value. Read-outs that look alike come from different tables or passages of the source.

Chain of NS3/NS4 complexes (P27958 1027-1657, one chain of several): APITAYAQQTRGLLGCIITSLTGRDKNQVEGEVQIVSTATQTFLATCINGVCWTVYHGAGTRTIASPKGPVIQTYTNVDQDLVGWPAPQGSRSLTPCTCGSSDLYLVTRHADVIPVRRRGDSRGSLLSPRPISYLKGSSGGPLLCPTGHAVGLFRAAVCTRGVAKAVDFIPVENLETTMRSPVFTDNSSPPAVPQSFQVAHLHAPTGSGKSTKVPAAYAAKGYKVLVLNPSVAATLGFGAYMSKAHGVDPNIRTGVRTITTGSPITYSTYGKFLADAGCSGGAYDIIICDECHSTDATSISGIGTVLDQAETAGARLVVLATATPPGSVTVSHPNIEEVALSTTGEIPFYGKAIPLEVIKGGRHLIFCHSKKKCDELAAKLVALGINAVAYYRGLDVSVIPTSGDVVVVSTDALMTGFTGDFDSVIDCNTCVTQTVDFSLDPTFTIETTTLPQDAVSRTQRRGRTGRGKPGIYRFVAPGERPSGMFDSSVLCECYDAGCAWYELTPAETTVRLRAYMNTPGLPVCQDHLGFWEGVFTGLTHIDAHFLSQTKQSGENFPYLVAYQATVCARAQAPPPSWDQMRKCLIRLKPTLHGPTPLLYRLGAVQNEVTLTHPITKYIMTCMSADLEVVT

Consider `Cn1ccc2ccc(O[C@@H]3C[C@H]4C(=O)N[C@]5(C(=O)NS(=O)(=O)C6(C)CC6)C[C@H]5/C=C\CCCCC[C@H](NC(=O)OC(C)(C)C)C(=O)N4C3)cc21` [Compound 702], for which the pIC50 in assay [1] is > 8.00. In assay [2] (setting [3]), the pEC50 was 7.00 to 8.00.
Take `Cc1cccc(-c2csc(-c3cccc4c3nc(O[C@@H]3C[C@H]5C(=O)N[C@]6(C(=O)NS(=O)(=O)N(C)C)C[C@H]6/C=C\CCCCC[C@H](NC(=O)OC(C)(C)C)C(=O)N5C3)n4C(C)C)n2)c1` [Compound 1750]: the pIC50 in assay [1] was > 8.00. Further, the pEC50 in assay [2] (setting [3]) is 7.00 to 8.00.
Take `CC(C)n1c(O[C@@H]2C[C@H]3C(=O)N[C@]4(C(=O)NS(=O)(=O)N(C)C)C[C@H]4/C=C\CCCCC[C@H](NC(=O)OC(C)(C)C)C(=O)N3C2)nc2c(-c3nc(-c4ccc(Cl)cc4)cs3)cccc21` [Compound 1751]: the pIC50 in assay [1] was > 8.00. Also, in assay [2] (setting [3]), the pEC50 is 7.00 to 8.00.
In the same order, the values of `CC(C)n1c(O[C@@H]2C[C@H]3C(=O)N[C@]4(C(=O)NS(=O)(=O)C5CC5)C[C@H]4/C=C\CCCCC[C@H](NC(=O)OC(C)(C)C)C(=O)N3C2)nc2c(Br)cccc21` [Compound 224] are > 8.00 and > 8.00.
Take `Cc1cnc(-c2cccc3c2nc(O[C@@H]2C[C@H]4C(=O)N[C@]5(C(=O)NS(=O)(=O)C6CC6)C[C@H]5/C=C\CCCCC[C@H](NC(=O)OC(C)(C)C)C(=O)N4C2)n3C(C)C)s1` [Compound 216]: in assay [1], the pIC50 was > 8.00. In assay [2] (setting [3]), the pEC50 is > 8.00.
Take `CC(C)n1c(O[C@@H]2C[C@H]3C(=O)N[C@]4(C(=O)NS(=O)(=O)N(C)C)C[C@H]4/C=C\CCCCC[C@H](NC(=O)OC(C)(C)C)C(=O)N3C2)nc2c(-c3nc(-c4ccncc4)cs3)cccc21` [Compound 1737]: the negative logarithm of the IC50 (pIC50) in assay [1] was > 8.00. Also, the pEC50 in assay [2] (setting [3]) was > 8.00.
As for `CC(C)n1c(O[C@@H]2C[C@H]3C(=O)N[C@]4(C(=O)NS(=O)(=O)N(C)C)C[C@H]4/C=C\CCCCC[C@H](NC(=O)OC(C)(C)C)C(=O)N3C2)nc2c(C(=O)N(C)C)cccc21` [Compound 279], the pIC50 in assay [1] was > 8.00. Besides, the pEC50 in assay [2] (setting [3]) is < 7.00.
`COc1ccc2c(O[C@@H]3C[C@H]4C(=O)N[C@]5(C(=O)NS(=O)(=O)C6(C)CC6)C[C@H]5/C=C\CCCCC[C@H](Nc5cccc(C(=O)N6CC(C)OC(C)C6)c5)C(=O)N4C3)cc(-c3nc(C(C)C)cs3)nc2c1C` (stereo partly shown) [Compound 106]: the pIC50 in assay [1] was > 8.00. Moreover, in assay [2] (setting [3]), the pEC50 is > 8.00.
As for `Cn1cnc2ccc(O[C@@H]3C[C@H]4C(=O)N[C@]5(C(=O)NS(=O)(=O)C6(C)CC6)C[C@H]5/C=C\CCCCC[C@H](NC(=O)OC(C)(C)C)C(=O)N4C3)cc21` [Compound 296], the pIC50 in assay [1] was > 8.00. The pEC50 in assay [2] (setting [3]) was < 7.00.
For `Cc1csc(-c2cccc3c2nc(O[C@@H]2C[C@H]4C(=O)N[C@]5(C(=O)NS(=O)(=O)C6CC6)C[C@H]5/C=C\CCCCC[C@H](NC(=O)OC(C)(C)C)C(=O)N4C2)n3C(C)C)n1` [Compound 215], the pIC50 in assay [1] was > 8.00. Also, in assay [2] (setting [3]), the pEC50 was > 8.00.
Turning to `CCn1cnc2ccc(O[C@@H]3C[C@H]4C(=O)N[C@]5(C(=O)NS(=O)(=O)C6(C)CC6)C[C@H]5/C=C\CCCCC[C@H](NC(=O)OC(C)(C)C)C(=O)N4C3)cc21` [Compound 298], in assay [1], the pIC50 is > 8.00. Also, the pEC50 in assay [2] (setting [3]) was < 7.00.
On to `Cc1cccc(Cc2csc(-c3cccc4c3nc(O[C@@H]3C[C@H]5C(=O)N[C@]6(C(=O)NS(=O)(=O)C7(C)CC7)C[C@H]6/C=C\CCCCC[C@H](NC(=O)OC(C)(C)C)C(=O)N5C3)n4C(C)C)n2)c1` [Compound 1718], for which the negative-log IC50 (pIC50) in assay [1] was > 8.00. Moreover, the pEC50 in assay [2] (setting [3]) was > 8.00.
Take `CC(C)n1c(O[C@@H]2C[C@H]3C(=O)N[C@]4(C(=O)NS(=O)(=O)C5(C)CC5)C[C@H]4/C=C\CCCCC[C@H](NC(=O)OC(C)(C)C)C(=O)N3C2)nc2c(-c3nc(-c4ccccc4F)cs3)cccc21` [Compound 1710]: in assay [1], the pIC50 was > 8.00. In assay [2] (setting [3]), the pEC50 is 7.00 to 8.00.
As for `COc1ccc2c(O[C@@H]3C[C@H]4C(=O)N[C@]5(C(=O)NS(=O)(=O)C6(C)CC6)C[C@H]5/C=C\CCCCC[C@H](Nc5cccc(C(=O)O)c5)C(=O)N4C3)cc(-c3nc(C(C)C)cs3)nc2c1C` [Compound 103], the pIC50 in assay [1] is > 8.00. Further, the pEC50 in assay [2] (setting [3]) is > 8.00.
Consider `COc1ccc2c(O[C@@H]3C[C@H]4C(=O)N[C@]5(C(=O)NS(=O)(=O)C6(C)CC6)C[C@H]5/C=C\CCCCC[C@H](Nc5cccc(C(=O)N6CCN(c7ccc(C)cc7)CC6)c5)C(=O)N4C3)cc(-c3nc(C(C)C)cs3)nc2c1C` [Compound 123], for which, in assay [1], the pIC50 was > 8.00. In addition, the pEC50 in assay [2] (setting [3]) was 7.00 to 8.00.
For the molecule `CC(C)(C)OC(=O)N[C@H]1CCCCC/C=C\[C@@H]2C[C@@]2(C(=O)NS(=O)(=O)C2(C)CC2)NC(=O)[C@@H]2C[C@@H](Oc3ccc4c(c3)ncn4-c3ccccc3)CN2C1=O` [Compound 294], the pIC50 in assay [1] was > 8.00. For the same molecule, the pEC50 in assay [2] (setting [3]) is < 7.00.
`CC(C)n1c(O[C@@H]2C[C@H]3C(=O)N[C@]4(C(=O)NS(=O)(=O)C5(C)CC5)C[C@H]4/C=C\CCCCC[C@H](NC(=O)OC4CCCC4)C(=O)N3C2)nc2c(-c3nc(C4CCCC4)cs3)cccc21` [Compound 1412]: the pIC50 in assay [1] is > 8.00. Besides, the pEC50 in assay [2] (setting [3]) is > 8.00.
As for `COc1ccc2c(O[C@@H]3C[C@H]4C(=O)N[C@]5(C(=O)NS(=O)(=O)C6(C)CC6)C[C@H]5/C=C\CCCCC[C@H](Nc5cccc(C(=O)N6CCN(C)CC6)c5)C(=O)N4C3)cc(-c3nc(C(C)C)cs3)nc2c1C` [Compound 104], in assay [1], the pIC50 is > 8.00. In addition, in assay [2] (setting [3]), the pEC50 was > 8.00.
On to `CC(C)n1c(O[C@@H]2C[C@H]3C(=O)N[C@]4(C(=O)NS(=O)(=O)N(C)C)C[C@H]4/C=C\CCCCC[C@H](NC(=O)OC(C)(C)C)C(=O)N3C2)nc2c(C(=O)NCCc3ccccc3)cccc21` [Compound 284], for which the pIC50 in assay [1] is > 8.00. Besides, the pEC50 in assay [2] was > 8.00.
As to `CC(C)n1c(O[C@@H]2C[C@H]3C(=O)N[C@]4(C(=O)NS(=O)(=O)N(C)C)C[C@H]4/C=C\CCCCC[C@H](NC(=O)OC(C)(C)C)C(=O)N3C2)nc2c(-c3nc(Cc4cc(F)cc(F)c4)cs3)cccc21` [Compound 1756], in assay [1], the pIC50 was > 8.00. In assay [2] (setting [3]), the pEC50 is 7.00 to 8.00.
On the same counts, the results for `C=Cc1cccc2c1nc(O[C@@H]1C[C@H]3C(=O)N[C@]4(C(=O)NS(=O)(=O)C5CC5)C[C@H]4/C=C\CCCCC[C@H](NC(=O)OC(C)(C)C)C(=O)N3C1)n2C(C)C` [Compound 225] are > 8.00 and > 8.00.
In the same order, the values of `COc1ccc(-c2csc(-c3cccc4c3nc(O[C@@H]3C[C@H]5C(=O)N[C@]6(C(=O)NS(=O)(=O)C7(C)CC7)C[C@H]6/C=C\CCCCC[C@H](NC(=O)OC(C)(C)C)C(=O)N5C3)n4C(C)C)n2)cc1` [Compound 1715] are > 8.00 and 7.00 to 8.00.
For `Cc1ccccc1-c1cccc2c1nc(O[C@@H]1C[C@H]3C(=O)N[C@]4(C(=O)NS(=O)(=O)C5(C)CC5)C[C@H]4/C=C\CCCCC[C@H](Nc4ccccc4)C(=O)N3C1)n2C(C)C` [Compound 250], the pIC50 in assay [1] is > 8.00. For the same molecule, in assay [2] (setting [3]), the pEC50 was < 7.00.
On the same counts, the results for `CC(C)n1c(O[C@@H]2C[C@H]3C(=O)N[C@]4(C(=O)NS(=O)(=O)C5(C)CC5)C[C@H]4/C=C\CCCCC[C@H](NC(=O)OC(C)(C)C)C(=O)N3C2)nc2c(-c3nc(C4CCCC4)cs3)cccc21` [Compound 1402] are > 8.00 and > 8.00.
Consider `CC(C)n1c(O[C@@H]2C[C@H]3C(=O)N[C@]4(C(=O)O)C[C@H]4/C=C\CCCCC[C@H](Nc4cccc(F)c4)C(=O)N3C2)nc2c(-c3nc(C4CCCC4)cs3)cccc21` [Compound 1763], for which, in assay [1], the pIC50 is 7.00 to 8.00. For the same molecule, the pEC50 in assay [2] (setting [3]) is < 7.00.
As for `COc1ccc(Cc2csc(-c3cccc4c3nc(O[C@@H]3C[C@H]5C(=O)N[C@]6(C(=O)NS(=O)(=O)N(C)C)C[C@H]6/C=C\CCCCC[C@H](NC(=O)OC(C)(C)C)C(=O)N5C3)n4C(C)C)n2)cc1OC` [Compound 1757], in assay [1], the pIC50 is > 8.00. Besides, the pEC50 in assay [2] (setting [3]) is > 8.00.
For `Cc1sc(-c2cccc3c2nc(O[C@@H]2C[C@H]4C(=O)N[C@]5(C(=O)NS(=O)(=O)C6CC6)C[C@H]5/C=C\CCCCC[C@H](NC(=O)OC(C)(C)C)C(=O)N4C2)n3C(C)C)nc1C(C)C` [Compound 219], the pIC50 in assay [1] was > 8.00. Further, the pEC50 in assay [2] (setting [3]) was > 8.00.
Turning to `CC(C)n1c(O[C@@H]2C[C@H]3C(=O)N[C@]4(C(=O)NS(=O)(=O)N(C)C)C[C@H]4/C=C\CCCCC[C@H](NC(=O)OC(C)(C)C)C(=O)N3C2)nc2c(C(=O)Nc3ccccc3)cccc21` [Compound 282], the pIC50 in assay [1] is > 8.00. The molecule also showed a pEC50 in assay [2] of 7.00 to 8.00.
In the case of `CC(C)n1c(O[C@@H]2C[C@H]3C(=O)N[C@]4(C(=O)NS(=O)(=O)N(C)C)C[C@H]4/C=C\CCCCC[C@H](NC(=O)OC(C)(C)C)C(=O)N3C2)nc2ncccc21` [Compound 1780], in assay [1], the pIC50 was > 8.00. Besides, the pEC50 in assay [2] (setting [3]) was 7.00 to 8.00.
For `COc1cccc2c1nc(O[C@@H]1C[C@H]3C(=O)N[C@]4(C(=O)NS(=O)(=O)N(C)C)C[C@H]4/C=C\CCCCC[C@H](NC(=O)OC(C)(C)C)C(=O)N3C1)n2C(C)C` [Compound 286], the pIC50 in assay [1] is > 8.00. Also, in assay [2] (setting [3]), the pEC50 was > 8.00.
For the molecule `CC(C)n1c(O[C@@H]2C[C@H]3C(=O)N[C@]4(C(=O)NS(=O)(=O)C5(C)CC5)C[C@H]4/C=C\CCCCC[C@H](Nc4ccccc4)C(=O)N3C2)nc2c(-c3ccc(OC(F)(F)F)cc3)cccc21` [Compound 249], the pIC50 in assay [1] is > 8.00. Besides, the pEC50 in assay [2] (setting [3]) was < 7.00.
On to `CC(C)n1c(O[C@@H]2C[C@H]3C(=O)N[C@]4(C(=O)NS(=O)(=O)C5(C)CC5)C[C@H]4/C=C\CCCCC[C@H](Nc4ccccc4)C(=O)N3C2)nc2c(-c3cccc(C(F)(F)F)c3)cccc21` [Compound 251], for which the pIC50 in assay [1] is > 8.00. The pEC50 in assay [2] (setting [3]) is < 7.00.
